Assay results from publication PMC2424174, “Suppression of Tumor Growth and Angiogenesis by a Specific Antagonist of the Cell-Surface Expressed Nucleolin” (PLoS ONE, 2008).
Marks after values point to notes of the source that are not given here.

Tests used:
[1] = tested on: CD31 endothelial marker in tumors; experiment: Tumor vascularization, CD31 immunohistochemistry; format: in vivo, mouse; settings: CD31 staining; HB-19 5 mg/kg or 5-FU 40 mg/kg, intraperitoneal, 8 weeks; compared to untreated tumors
Description: Figure 9 Reduced density of blood vessels in HB-19 treated tumor-bearing mice. Sections of tumors recovered from mice, untreated control and treated with either HB-19 or 5-FU (experiment described in Figure 8B) were stained with antibodies against the CD31 endothelial marker and analyzed by fluorescence microscopy. […] Angiogenesis was quantified by image analysis of CD31-labeled endothelial cells.
Immediately after surgical resection, tumors, were frozen in liquid nitrogen and fixed for 20 min in acetone at 4°C or fixed with 4% PFA for paraffin inclusion. The sections of 8 µm were re-hydrated and saturated in PBS containing 1% BSA and 2% normal goat serum. To visualize tumor endothelial cells, sections were incubated with a Rat anti-mouse CD31 monoclonal antibody (1∶50) in saturation buffer 1 hour at room temperature. After two washes in PBS, sections were incubated for 1 hour at room temperature with biotinylated goat anti-Rat IgG (1∶1000 dilution; Chemicon International Inc., Temecula, CA) in saturation buffer, followed by three washes in PBS and incubation with the avidin-biotinylated-alkaline phosphatase complex (Vector Laboratories). […] Angiogenesis was quantified by Image analysis of CD31-labeled endothelial cells. The EC density in each field was expressed as the ratio of EC area/total area examined ×100 (%). […]

[2] = tested on: MDA-MB-435 tumor-cell xenografts; experiment: MDA-MB-435 xenograft in nude mice; format: in vivo, human; settings: 5-FU 40 mg/kg, intraperitoneal, 3 times/week, 8 weeks, n = 10
Description: Figure 8 HB-19 inhibits tumor growth in the nude mice. (A) HB-19 inhibits the growth of MDA-MB-231 tumor-cell xenografts. Cells (2×10^6) were injected subcutaneously into the right flank of female nude mice. Two weeks later, mice with a palpable tumor of approximately 40 mm^3 in volume were randomly separated into three groups (n = 5) and were given peritumoral injections 3 times/week of 0.1 ml PBS alone (Control), HB-19 (5 mg/kg), or Tamoxifen (Tmx) 10 mg/kg) for 6 weeks. (B) HB-19 inhibits the growth of MDA-MB-435 tumor-cell xenografts. Cells (1×10^6) were injected in the mammary fat pad of female nude mice. Two weeks later, mice with a palpable tumor were randomly separated into three groups (n = 10) and were given intraperitoneal injections 3 times/week of 0.1 ml PBS alone (Control), HB-19 (5 mg/kg), or 5-fluouracil (5-FU, 40 mg/kg) for 8 weeks. At the end of each experiment (in A and B), mice were sacrificed and the tumors were excised and weighed. The results are presented as the mean weight ±standard deviation (±S.D.) obtained from the number of mice in each group. (C, D) Inhibition of tumor development in mice treated by intraperitoneal (i.p.) and subcutaneous (s.c.) administration of HB-19. MDA-MB-231 tumor bearing mice in three groups (n = 10) were treated with HB-19 (10 mg/kg) by i.p. or s.c. injections, 3 times/week for 28 days. […]

[3] = Blood cell count in tumor bearing mice; format: in vivo, mouse; settings: 3 times/week, 8 weeks
Description: (§1) Figure 8 HB-19 inhibits tumor growth in the nude mice. (A) HB-19 inhibits the growth of MDA-MB-231 tumor-cell xenografts. Cells (2×10^6) were injected subcutaneously into the right flank of female nude mice. Two weeks later, mice with a palpable tumor of approximately 40 mm^3 in volume were randomly separated into three groups (n = 5) and were given peritumoral injections 3 times/week of 0.1 ml PBS alone (Control), HB-19 (5 mg/kg), or Tamoxifen (Tmx) 10 mg/kg) for 6 weeks. (B) HB-19 inhibits the growth of MDA-MB-435 tumor-cell xenografts. Cells (1×10^6) were injected in the mammary fat pad of female nude mice. Two weeks later, mice with a palpable tumor were randomly separated into three groups (n = 10) and were given intraperitoneal injections 3 times/week of 0.1 ml PBS alone (Control), HB-19 (5 mg/kg), or 5-fluouracil (5-FU, 40 mg/kg) for 8 weeks. At the end of each experiment (in A and B), mice were sacrificed and the tumors were excised and weighed. The results are presented as the mean weight ±standard deviation (±S.D.) obtained from the number of mice in each group. (C, D) Inhibition of tumor development in mice treated by intraperitoneal (i.p.) and subcutaneous (s.c.) administration of HB-19. MDA-MB-231 tumor bearing mice in three groups (n = 10) were treated with HB-19 (10 mg/kg) by i.p. or s.c. injections, 3 times/week for 28 days. […] Statistical significance: *p<0.05, **p<0.01, ***p<0.001.
Blood samples were collected by cardiac puncture. Hematocrit level, white blood cells and platelets count were determined individually in whole blood anticoagulated with EDTA (1 mM) at room temperature. Blood cell count was analyzed with an automated flow cytometric blood cell counter (Cell-Dyn 3500, Abbott Laboratories, Rungis, France).

[4] = tested on: MDA-MB-231 tumor-cell xenografts; experiment: MDA-MB-231 xenograft in nude mice; format: in vivo, human; settings: tamoxifen 10 mg/kg, peritumoral, 3 times/week, 6 weeks, n = 5
Description: as §1

surface nucleolin [5] = experiment: Complex of HB-19/Btn with surface nucleolin, HUVECs, avidin-agarose and immunoblot; format: binding, human; settings: 45 min, 20°C, 0-12 µM HB-19/Btn
Description: Figure 3 Specific binding and entry of HB-19 in endothelial cells. (A) HB-19/Btn forms a stable complex with nucleolin expressed on the surface of HUVECs. Cells were incubated (45 min, 20°C) with 0, 1, 2, 4, 8 and 12 µM of HB-19/Btn before preparation of surface/cytoplasmic and nuclear extracts and recovery of surface nucleolin from the surface/cytoplasmic extracts as in Figure 2A. Material extracted from 2×10^7 and 2×10^6 cells was analyzed in panels Surface and Surface/Cytoplasm or Nucleus, respectively. Immunoblotting was with the anti-nucleolin mAb D3. (B) The specific binding of HB-19/Btn to HUVECs. The binding of 1 µM HB-19/Btn was studied at 4 °C by FACScan analysis. To show the specificity of binding, the reaction was carried out in the absence or presence of 50 µM HB-19, F3, or 9Arg peptides. The ordinate gives the relative cell number, whereas the abscissa gives the relative fluorescence intensity. (C) HB-19 entry in HUVECs. Cells were incubated with 5 µM of HB-19/Btn (1 hour, 37°C) before fixation in PFA (for surface binding) or PFA-Triton (for entry), respectively. […]
Cells were passaged in DMEM culture medium containing 10% FCS in 75 cm^2 flasks. […] The purified surface nucleolin was eluted in the electrophoresis sample buffer containing SDS and analyzed by SDS–polyacrylamide gel electrophoresis (PAGE).

surface nucleolin [6] = experiment: Complex of HB-19/Btn with surface nucleolin, MDA-MB-231 cells, avidin-agarose and immunoblot; format: binding, human; settings: 45 min, 20°C, 0-12 µM HB-19/Btn
Description: Figure 2 HB-19 binds nucleolin expressed on the surface of tumor cells and causes reduction of cytoplasmic/surface but not nuclear nucleolin. (A) HB-19/Btn forms a stable complex with nucleolin expressed on the surface of cells. MDA-MB-231 cells were incubated (45 min, 20°C) with 0, 1, 2, 4, 8 and 12 µM of HB-19/Btn before preparation of surface/cytoplasmic (i.e., nucleus-free) and nuclear extracts, [28]. Samples of surface nucleolin (purified using surface/cytoplasmic extracts from 2×10^7 cells) and crude surface/cytoplasmic and nuclear extracts (from 2×10^6 cells) were analyzed by immunoblotting for the detection of nucleolin using mAb D3. (B) Specific reduction of surface/cytoplasmic nucleolin in HB-19 treated cells. […] Material from 2×10^6 cells (Untreated or HB-19 treated cells as indicated − or + signs, respectively) was analyzed by immunoblotting for the detection of nucleolin. […] The intensity of nucleolin protein bands quantified by using the NIH image software indicated 75% and 93% reduction of surface/cytoplasmic nucleolin in HB-19 treated cells at 24 and 48 hours, respectively, compared to the corresponding untreated cells. […] MDA-MB-231 cells cultured in the absence (Control Cells) or presence of 10 µM of HB-19 for 48 hours (HB-19 Treated Cells) were fixed in PFA-Triton and processed for fluorescence microscopy. […]

nuclear nucleolin = settings: cited from earlier work
Description: (§2) Previously, guanosine-rich phosphodiester oligonucleotides (referred to as GROs) and endostatin have been reported to exert antitumoral and antiangiogenic activity, respectively, through interaction with surface nucleolin [21], [41], [42]. […] At 20°C, GRO ...

tumor cells = settings: cited from earlier work
Description: as §2

[7] = tested on: cells (surface nucleolin); settings: cited from earlier work
From the text: The importance of cell-surface nucleolin in cancer biology is highlighted by many studies showing that ligands of nucleolin play critical role in tumorigenesis and angiogenesis, [16]. For example, among surface nucleolin binding growth factors: midkine and PTN can transform cells, whereas on endothelial cells they exert both mitogenic and angiogenic effect. Laminin-1 that induces differentiation of cells binds surface nucleolin, while urokinase that is implicated in mechanisms regulating pericellular proteolysis, cell-surface adhesion, and mitogenesis binds and is co-internaliz ... || Previously, guanosine-rich phosphodiester oligonucleotides (referred to as GROs) and endostatin have been reported to exert antitumoral and antiangiogenic activity, respectively, through interaction with surface nucleolin [21], [41], [42]. […] At 20°C, GRO ...

nucleolin = settings: cited from earlier work
From the text: HB-19 presents pentavalently the tripeptide Kψ(CH2N)PR in which the reduced peptide bond provides high stability against serum proteases (Figure 1). HB-19 forms a stable complex with the cell-surface expressed nucleolin and is internalized by an active process. This le ... || The interaction of HB-19 with surface nucleolin was investigated using human breast cancer MDA-MB-231 tumor cells and human umbilical vein endothelial cells (HUVECs). […] Similarly, HB-19/Btn binds and forms a stable complex with surface nucleolin in a dose-dependent manner in both types of cell ... || Previously, guanosine-rich phosphodiester oligonucleotides (referred to as GROs) and endostatin have been reported to exert antitumoral and antiangiogenic activity, respectively, through interaction with surface nucleolin [21], [41], [42]. […] At 20°C, GRO ... || (+ 1 further places)

O=c1[nH]cc(F)c(=O)[nH]1 [5-FU, 5-fluouracil]
inhibition of tumor vascularization [1]: significantly inhibited tumor vascularization | inhibition of tumor growth [2]: 66% | leucopenia ([3]; 5-FU 40 mg/kg, intraperitoneal): toxic causing a significant degree of leucopenia | reduction in the number of lymphocytes ([3]; 5-FU 40 mg/kg, intraperitoneal): 55% | Eosinophils ([3]; HB-19 5 mg/kg or 5-FU 40 mg/kg i.p., mean ± SD, n = 10, untreated 0.01±0.02): 0.05±0.04 ×10^3/µl | Basophils ([3]; HB-19 5 mg/kg or 5-FU 40 mg/kg i.p., mean ± SD, n = 10, untreated 0.10±0.06): 0.10±0.04 ×10^3/µl | Monocytes ([3]; HB-19 5 mg/kg or 5-FU 40 mg/kg i.p., mean ± SD, n = 10, untreated 0.20±0.09): 0.22±0.09 ×10^3/µl | Neutrophils ([3]; HB-19 5 mg/kg or 5-FU 40 mg/kg i.p., mean ± SD, n = 10, untreated 0.89±0.39, 5-FU p<0.05): 0.53±0.15 * ×10^3/µl | Lymphocytes ([3]; HB-19 5 mg/kg or 5-FU 40 mg/kg i.p., mean ± SD, n = 10, untreated 1.84±0.78, 5-FU p<0.01): 0.83±0.22 ** ×10^3/µl | Leukocytes ([3]; HB-19 5 mg/kg or 5-FU 40 mg/kg i.p., mean ± SD, n = 10, untreated 3.05±1.29, 5-FU p<0.05): 1.73±0.37 * ×10^3/µl | Erythrocytes ([3]; HB-19 5 mg/kg or 5-FU 40 mg/kg i.p., mean ± SD, n = 10, untreated 8.73±0.26, 5-FU p<0.0001): 7.60±0.30*** ×10^6/µl | Platelets ([3]; HB-19 5 mg/kg or 5-FU 40 mg/kg i.p., mean ± SD, n = 10, untreated 1041±91): 1042±59 ×10^3/µl

CC/C(=C(\c1ccccc1)c1ccc(OCCN(C)C)cc1)c1ccccc1 [tamoxifen, reference compound]
reduction of tumor mass [4]: 80%

H2NLys-Lys-Lys-Gly-Pro-Lys-Glu-Lys-βAla-Lys(Btn)-βAlaCONH2 [HB-19/Btn, biotinylated HB-19 for recovery of surface nucleolin]
concentration of maximum binding to surface nucleolin (surface nucleolin [5]): 8 to 12 µM | concentration of maximum binding to surface nucleolin (surface nucleolin [6]): 8 to 12 µM

endostatin
phosphorylation of nuclear nucleolin (nuclear nucleolin): inhibits phosphorylation of nuclear nucleolin | direct effect on tumor cell growth (tumor cells): does not directly affect tumor cell growth | internalization [7]: binds nucleolin on the surface of endothelial cells before translocation to the nucleus | heparan sulfate proteoglycan requirement of binding to surface nucleolin (nucleolin): endostatin but not HB-19 binding to surface nucleolin requires heparan sulfate proteoglycans
